Several values for one entry are separate records, joined by “and”; a condition that tells them apart may be missing. Identical values can stand only once. Inconclusive results and toxic doses are left out. Rule as the data show it: active = T/C of 150% or more; inactive = T/C below 125%.
Tested on: L1210 leukemia ip in BDF1 mice, survival T/C
Experiment: NCI In Vivo Anticancer Drug Screen. Data for tumor model L1210 Leukemia (intraperitoneal) in B6D2F1 (BDF1) mice
Conditions: endpoint: mean survival time, higher = longer survival
Outline: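 Transplanted-tumor mice were given test agent; controls received vehicle only. Survival readings from the two groups were divided (treated over control).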

[1] = dose: 100.0 mg/kg/injection, schedule: Q04DX003 (ip), vehicle: saline with Tween-80
[2] = dose: 200.0 mg/kg/injection, schedule: Q04DX003 (ip), vehicle: saline with Tween-80
[3] = dose: 400.0 mg/kg/injection, schedule: Q04DX003 (ip), vehicle: saline with Tween-80
[4] = dose: 100.0 mg/kg/injection, schedule: Q01DX009 (ip), vehicle: saline with Tween-80
[5] = dose: 200.0 mg/kg/injection, schedule: Q01DX009 (ip), vehicle: saline with Tween-80
[6] = dose: 400.0 mg/kg/injection, schedule: Q01DX009 (ip), vehicle: saline with Tween-80
[7] = dose: 25.0 mg/kg/injection, schedule: Q01DX001 (ip), vehicle: saline
[8] = dose: 100.0 mg/kg/injection, schedule: Q01DX009 (ip), vehicle: Klucel (hydroxypropylcellulose) (HPC)
[9] = dose: 100.0 mg/kg/injection, schedule: Q04DX003 (ip), vehicle: Klucel (hydroxypropylcellulose) (HPC)
[10] = dose: 200.0 mg/kg/injection, schedule: Q04DX003 (ip), vehicle: Klucel (hydroxypropylcellulose) (HPC)
[11] = dose: 400.0 mg/kg/injection, schedule: Q04DX003 (ip), vehicle: Klucel (hydroxypropylcellulose) (HPC)

Measured: T/C

NC1=NCC(CSS(=O)(=O)O)S1 (configuration not stated)
inactive: dose: 5.0 mg/kg/injection, schedule: Q01DX009 (ip), vehicle: saline 95 % of control | dose: 10.0 mg/kg/injection, schedule: Q01DX001 (ip), vehicle: saline 101 % of control | dose: 10.0 mg/kg/injection, schedule: Q01DX009 (ip), vehicle: saline 89 % of control | dose: 10.0 mg/kg/injection, schedule: Q04DX003 (ip), vehicle: saline 96 % of control | dose: 20.0 mg/kg/injection, schedule: Q01DX001 (ip), vehicle: saline 93 % of control | dose: 20.0 mg/kg/injection, schedule: Q01DX009 (ip), vehicle: saline 106 % of control | dose: 20.0 mg/kg/injection, schedule: Q04DX003 (ip), vehicle: saline 105 % of control | dose: 29.0 mg/kg/injection, schedule: Q01DX009 (ip), vehicle: saline 90 % of control | dose: 40.0 mg/kg/injection, schedule: Q01DX001 (ip), vehicle: saline 95 % of control | dose: 40.0 mg/kg/injection, schedule: Q04DX003 (ip), vehicle: saline 97 % of control

NNS(=O)(=O)c1ccc(N=Nc2ccccc2)cc1
inactive: [1] 90 % of control | [2] 93 % of control | [3] 97 % of control

CC(=O)Oc1cc2ccccc2cc1C(C)C
inactive: [4] 98 % of control | [1] 103 % of control | [5] 98 % of control | [2] 95 % of control | [6] 88 % of control | [3] 90 % of control

CCOC(=O)CN(C(=O)OCC)C(OCC)OCC
inactive: [4] 95 % of control | [5] 104 % of control | [6] 93 % of control

CSC1=NCCCC1
inactive: dose: 75.0 mg/kg/injection, schedule: Q01DX001 (ip), vehicle: saline 105 % of control | dose: 150.0 mg/kg/injection, schedule: Q01DX001 (ip), vehicle: saline 104 % of control

CCCCC(CC)(CCN)CCCC
inactive: dose: 5.0 mg/kg/injection, schedule: Q01DX001 (ip), vehicle: carboxymethylcellulose (CMC) 102 % of control | dose: 10.0 mg/kg/injection, schedule: Q01DX001 (ip), vehicle: carboxymethylcellulose (CMC) 104 % of control | dose: 20.0 mg/kg/injection, schedule: Q01DX001 (ip), vehicle: carboxymethylcellulose (CMC) 91 % of control

CC1(C)OC2OC(C(O)CN3CC3)C(O)C2O1 (configuration not stated)
inactive: dose: 24.6 mg/kg/injection, schedule: Q01DX Z (ip), vehicle: methylcellulose (MC) 104 % of control | dose: 37.0 mg/kg/injection, schedule: Q01DX Z (ip), vehicle: methylcellulose (MC) 107 % of control | dose: 56.0 mg/kg/injection, schedule: Q01DX Z (ip), vehicle: methylcellulose (MC) 99 % of control | dose: 84.0 mg/kg/injection, schedule: Q01DX Z (ip), vehicle: methylcellulose (MC) 107 % of control

CC12CCCCC1CC/C(=C\c1ccco1)C2=O (configuration not stated)
inactive: dose: 100.0 mg/kg/injection, schedule: Q01DX009 (ip), vehicle: saline 98 % of control | dose: 100.0 mg/kg/injection, schedule: Q04DX003 (ip), vehicle: saline 97 % of control | dose: 200.0 mg/kg/injection, schedule: Q01DX009 (ip), vehicle: saline 98 % of control | dose: 200.0 mg/kg/injection, schedule: Q04DX003 (ip), vehicle: saline 100 % of control | dose: 400.0 mg/kg/injection, schedule: Q01DX009 (ip), vehicle: saline 95 % of control | dose: 400.0 mg/kg/injection, schedule: Q04DX003 (ip), vehicle: saline 100 % of control

Cc1nc(-c2ccc(N=Cc3ccc(N(CCOS(C)(=O)=O)CCOS(C)(=O)=O)cc3C)cc2)c(C)s1
inactive: dose: 5.0 mg/kg/injection, schedule: Q01DX009 (ip), vehicle: Klucel (hydroxypropylcellulose) (HPC) 120 % of control | dose: 10.0 mg/kg/injection, schedule: Q01DX009 (ip), vehicle: Klucel (hydroxypropylcellulose) (HPC) 120 % of control | dose: 20.0 mg/kg/injection, schedule: Q01DX001 (ip), vehicle: Klucel (hydroxypropylcellulose) (HPC) 121 % of control | dose: 26.6 mg/kg/injection, schedule: Q01DX001 (ip), vehicle: Klucel (hydroxypropylcellulose) (HPC) 108 % of control | dose: 40.0 mg/kg/injection, schedule: Q01DX001 (ip), vehicle: Klucel (hydroxypropylcellulose) (HPC) 119 % of control | dose: 60.0 mg/kg/injection, schedule: Q01DX001 (ip), vehicle: Klucel (hydroxypropylcellulose) (HPC) 111 % of control

CCCCCC/C=N/NC(=O)c1ccc[n+](C)c1
inactive: dose: 50.0 mg/kg/injection, schedule: Q01DX009 (ip), vehicle: saline with Tween-80 93 % of control | [4] 100 % of control | [5] 100 % of control

CCC1(O)C(=O)OCc2c1ccn(Cc1ccc3ccccc3c1)c2=O (configuration not stated)
inactive: [7] 92 % of control | dose: 50.0 mg/kg/injection, schedule: Q01DX001 (ip), vehicle: saline 97 % of control | dose: 100.0 mg/kg/injection, schedule: Q01DX001 (ip), vehicle: saline 96 % of control | dose: 200.0 mg/kg/injection, schedule: Q01DX001 (ip), vehicle: saline 94 % of control

CC(=O)Nc1ccc(NC(=O)c2ccccc2Cl)cc1
inactive: [4] 93 % of control and 102 % of control | dose: 100.0 mg/kg/injection, schedule: Q04DX002 (ip), vehicle: saline with Tween-80 105 % of control and 90 % of control | [1] 98 % of control | [5] 96 % of control and 97 % of control | dose: 200.0 mg/kg/injection, schedule: Q04DX002 (ip), vehicle: saline with Tween-80 90 % of control and 91 % of control | [2] 95 % of control | [6] 117 % of control and 91 % of control | dose: 400.0 mg/kg/injection, schedule: Q04DX002 (ip), vehicle: saline with Tween-80 101 % of control and 110 % of control | [3] 98 % of control

Cc1cc(C)c(NC(=O)Nc2ccccc2)c(C)c1
inactive: [8] 96 % of control | [9] 98 % of control | dose: 200.0 mg/kg/injection, schedule: Q01DX009 (ip), vehicle: Klucel (hydroxypropylcellulose) (HPC) 104 % of control | [10] 98 % of control | dose: 400.0 mg/kg/injection, schedule: Q01DX009 (ip), vehicle: Klucel (hydroxypropylcellulose) (HPC) 95 % of control | [11] 101 % of control

Cc1ccc2c(ccc(/C=C/c3ccnc4c(O)cccc34)[n+]2C)c1
inactive: [7] 99 % of control | dose: 35.0 mg/kg/injection, schedule: Q01DX001 (ip), vehicle: saline 111 % of control | dose: 55.0 mg/kg/injection, schedule: Q01DX001 (ip), vehicle: saline 119 % of control | dose: 85.0 mg/kg/injection, schedule: Q01DX001 (ip), vehicle: saline 123 % of control | dose: 132.0 mg/kg/injection, schedule: Q01DX001 (ip), vehicle: saline 115 % of control and 121 % of control | dose: 198.0 mg/kg/injection, schedule: Q01DX001 (ip), vehicle: saline 117 % of control

CC1(C)C(=NNc2ccccc2)C(C)(C)C1=NNc1ccccc1
inactive: dose: 25.0 mg/kg/injection, schedule: Q01DX009 (ip), vehicle: Klucel (hydroxypropylcellulose) (HPC) 93 % of control | [8] 93 % of control and 88 % of control | [9] 97 % of control | [10] 96 % of control | [11] 97 % of control

CCN(C(=O)Nc1cccc2ccccc12)c1ccccc1C
inactive: dose: 100.0 mg/kg/injection, schedule: Q01DX009 (ip), vehicle: gum acacia 100 % of control | dose: 100.0 mg/kg/injection, schedule: Q04DX003 (ip), vehicle: gum acacia 98 % of control | dose: 200.0 mg/kg/injection, schedule: Q01DX009 (ip), vehicle: gum acacia 96 % of control | dose: 200.0 mg/kg/injection, schedule: Q04DX003 (ip), vehicle: gum acacia 98 % of control | dose: 400.0 mg/kg/injection, schedule: Q01DX009 (ip), vehicle: gum acacia 86 % of control | dose: 400.0 mg/kg/injection, schedule: Q04DX003 (ip), vehicle: gum acacia 96 % of control
